Laboratory results from US20070199084A1, “Ubiquitination of Membrane Transporters” (VANDERBILT UNIVERSITY, priority 2005, published 2007).
Residues, ends and D or L forms follow the SMILES beside them. *: point of attachment. Cbz = O=C(OCc1ccccc1)*

How the values were obtained:
[1] = molecular target: T1, dopamine transporter (Canis lupus familiaris, UniProt A0A8I3S5A0); details: cited from earlier work
T1 construct: digitonin-solubilized dopamine transporters from dog caudate nucleus; from tissue; host or cells: dog caudate nucleus, digitonin-solubilized extract
T1 sequence (A0A8I3S5A0 1-617): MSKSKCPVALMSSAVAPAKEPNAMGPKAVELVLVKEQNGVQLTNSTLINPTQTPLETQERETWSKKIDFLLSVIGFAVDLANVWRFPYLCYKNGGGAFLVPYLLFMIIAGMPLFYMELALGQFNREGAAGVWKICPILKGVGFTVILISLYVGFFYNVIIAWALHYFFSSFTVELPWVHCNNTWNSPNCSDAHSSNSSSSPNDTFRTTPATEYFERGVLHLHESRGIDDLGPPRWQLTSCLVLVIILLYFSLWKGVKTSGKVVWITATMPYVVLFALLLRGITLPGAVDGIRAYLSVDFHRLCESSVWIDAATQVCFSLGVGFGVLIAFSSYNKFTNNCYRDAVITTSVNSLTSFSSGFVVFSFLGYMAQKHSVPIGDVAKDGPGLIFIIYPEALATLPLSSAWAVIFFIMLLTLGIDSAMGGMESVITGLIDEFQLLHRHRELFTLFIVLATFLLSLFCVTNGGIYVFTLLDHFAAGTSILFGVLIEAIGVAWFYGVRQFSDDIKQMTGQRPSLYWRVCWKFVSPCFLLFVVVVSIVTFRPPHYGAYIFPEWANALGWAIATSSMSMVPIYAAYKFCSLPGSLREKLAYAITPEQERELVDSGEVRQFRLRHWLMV

[2] = molecular target: T2, NET (Homo sapiens, UniProt P23975); experiment: Ubiquitination of NET: IP with anti-HA (Ub), immunoblot with anti-NET, in transfected CAD cells; assay type: cell-based; details: CAD cells transfected with NET and HA-Ub; 1 mM, pre-incubated 30 min at 37° C. before IP; vs vehicle
T2 construct: expressed in transfected cells; host or cells: CAD cells (transient, co-transfected with HA-Ub)
T2 sequence (P23975 whole entry): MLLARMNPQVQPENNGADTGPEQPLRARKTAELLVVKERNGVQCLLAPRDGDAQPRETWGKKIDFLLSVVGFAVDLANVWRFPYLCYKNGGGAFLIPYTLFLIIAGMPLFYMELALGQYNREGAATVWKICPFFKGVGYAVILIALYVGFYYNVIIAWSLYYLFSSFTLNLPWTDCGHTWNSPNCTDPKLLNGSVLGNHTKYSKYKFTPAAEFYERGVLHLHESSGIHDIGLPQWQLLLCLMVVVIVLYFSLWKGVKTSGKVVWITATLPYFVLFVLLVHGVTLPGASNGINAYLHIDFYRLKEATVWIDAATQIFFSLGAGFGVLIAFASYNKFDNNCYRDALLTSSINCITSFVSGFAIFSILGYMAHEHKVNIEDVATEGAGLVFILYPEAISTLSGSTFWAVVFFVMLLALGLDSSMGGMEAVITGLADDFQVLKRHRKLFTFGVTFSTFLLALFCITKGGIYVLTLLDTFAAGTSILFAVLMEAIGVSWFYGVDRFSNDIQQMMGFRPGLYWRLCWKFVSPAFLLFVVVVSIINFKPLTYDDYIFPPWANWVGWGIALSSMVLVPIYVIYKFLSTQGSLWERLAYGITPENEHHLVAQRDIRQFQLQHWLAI
Description: Prior to IP, cells were pre-incubated in media containing either vehicle (control), 1 mM PMA, or 1 mM methacholine (meth) for 30 min. PMA and methacholine increased ubiquitination of NET.
(§1) Acute regulation of NET ubiquitination by PMA and methacholine (meth) was assessed. […] One mM PMA and 1 mM meth both increased ubiquitination of NET (FIG. 3). Chronic regulation of ubiquitination of NET was assessed in CAD cells transfected with NET and HA-Ub. […] FIGS. 5A-5B.

[3] = tested on: CAD cells; experiment: Ponceau-S staining of the total membrane (other cellular proteins); details: desipramine treatment for 3 days
[4] = tested on: hNET; experiment: NE transport assay in CAD-his-hNET cells; assay type: cell-based, human; design: dose or concentration left out as unconfirmed; details: incubated 0, 1, 4 and 24 hrs prior to NE transport assay; triplicates
Description: FIG. 5A—Inhibition of proteasomes influence NET transport in cells. CAD-his-hNET cells in 24 well plates were incubated in MG132 ([…]) for 0, 1, 4 and 24 hrs prior to NE transport assay in triplicates.
Transport Assay. CAD-his-hNET cells in 24 well plates were incubated in MG132 ([…]) for 0, 1, 4 and 24 hrs prior to NE transport assay in triplicates. Protein Assay. CAD cells transfected with NET and Ub were preincubated with MG132 for 4 hrs prior to cell lysis and immunoblot with anti-NET for protein analysis.

[5] = molecular target: T2, NET; experiment: NET proteins (total) by immunoblot with anti-NET in transfected CAD cells; assay type: cell-based; design: dose or concentration left out as unconfirmed; details: CAD cells transfected with NET and Ub; preincubated 4 hrs prior to lysis
Description: as §1

[6] = digitonin-solubilized extract of dog caudate

OC1(c2ccc(Cl)cc2)c2ccccc2C2=NCCN21 (stereo not shown) [mazindol]
inhibition of soluble [3H]WIN 35,428 binding (competition studies) [1, 6]: strongly

CCCCCCCCCCCCCC(=O)O[C@@H]1[C@@H](C)[C@@]2(O)[C@@H](C=C(CO)C[C@]3(O)C(=O)C(C)=C[C@@H]23)[C@@H]2C(C)(C)[C@]12OC(C)=O [PMA]
ubiquitination of NET (acute regulation) [2]: increased

COC(=O)C1C(OC(=O)c2ccccc2)CC2CCC1N2C (single isomer, unassigned; (+)) [(+)-cocaine]
inhibition of soluble [3H]WIN 35,428 binding (competition studies) [1, 6]: weakly

CNCCCN1c2ccccc2CCc2ccccc21 [Desipramine, desipramine]
inhibition of soluble [3H]WIN 35,428 binding (competition studies) [1, 6]: weakly | amounts of other cellular proteins (Ponceau-S stain of total membrane) [3]: no change

(−)-cocaine
potency compared to assays using [3H]GBR 12935 ([1]; competition against [3H]WIN 35,428): relatively more potent

CC(=O)OC(C)C[N+](C)(C)C (stereo not shown) [meth, methacholine]
ubiquitination of NET (acute regulation) [2]: increased

CC(C)C[C@@H](C=O)NC(=O)[C@H](CC(C)C)NC(=O)[C@H](CC(C)C)NC(=O)OCc1ccccc1 [MG132] (Cbz-Leu-Leu-Leu-aldehyde)
NET transport [4]: increase | NET protein concentration [5]: increase

COC(=O)[C@H]1[C@@H](c2ccc(F)cc2)C[C@@H]2CC[C@H]1N2C [[^3H]WIN 35,428]
Kd ([1]; digitonin-solubilized extract of dog caudate, read-out: Kd of binding): 16 nM
